SMILES strings stand for the structures.

We go through 5 molecules from patent publication US11427553B2, “Dihydrooxadiazinones” (Bayer Aktiengesellschaft, priority 2017, dated 2022).

Data set [1] has as its system SKMEL3 cells. Description: Assay 2 cell proliferation measurement, SKMEL3. In kind it is cell-based. The note with it: Homo sapiens, SK-MEL3, Melanoma, read-out: Anti-proliferation IC50 [nM] SKMEL3. The method, then: (§1) Cell Proliferation Measurement
(§2) The antiproliferative activity of the compounds of the general formula (I) was examined in vitro in human cancer cells. For this purpose, 500 cells, including HeLa cells, A2058 cells, DU145 cells, HMCB cells, IGR37 cells, NCIH1734 cells, OSRC2 cells, or 750 cells, including CAL51 cells, COL0741 cells, DBTRG05MG cells, DKMG cells, G292CLONEA141B1 cells, GB1 cells, HEL cells, HEL9217 cells, JHUEM1 cells, L3.3 cells, LI7 cells, TE4 cells, or 1000 cells, including 8505C cells, HUT78 cells, NCIH1563 cells, NCIH2122 cells, NCIH2172 cells, RVH421 cells, SKMEL3 cells, or 1500 cells, including C32 cells, HS578T cells, JHOM1 cells, NCIH196 cells, OVKATE cells, were plated in 384-well plates with appropriate growth medium and incubated at 37° C. overnight. After 24 h, the cells on the test plate were treated with the compounds of the general formula (I) as and incubated at 37° C. for 72 h. The compounds were added to the cells by means of an HP D300 digital dispenser in a 10 (or more)-step dilution series. As control, the cells were treated with vehicle (DMSO at 0.3% final concentration). After 72 h, the cells were treated with 20 μl/well of 50% CTG solution in PBS (Promega Cell Titer Glo (catalogue #G755B and G756B)) and incubated at room temperature for 10 min, and luminescence was measured by means of a VICTOR V (Perkin Elmer), in order to determine cell viability at the end of treatment. The percentage effect on cell growth and the IC50 derived therefrom were determined for each test substance using the values from untreated wells (=percent viability). The IC50 values were calculated using a 4-parameter fit.

The subject of data set [2] is NCIH2172 cells. The data set can be described thus: Assay 2 cell proliferation measurement, H2172. The note with it: Homo sapiens, NCI-H2172, Lung non small cell carcinoma, read-out: Anti-proliferation IC50 [nM] H2172. In kind it is cell-based. The method, then:
as §1, §2

Data set [3] relates to HeLa cells. Description: Assay 2 cell proliferation measurement, HeLa. The format is cell-based. The note with it: Homo sapiens, Cervical, read-out: Anti-proliferation IC50 [nM] HeLa. As for the experimental part: as §1, §2
Data set [4] concerns IGR-37 xenograft (Melanoma). Description: Assay 3 in vivo xenotransplantation model, IGR-37. The note with it: IGR-37 melanoma xenograft, mice, 10 mg/kg 2QD p.o.; * P < 0.05 vs control. The text has this:
In Vivo Xenotransplantation Models
The anti-tumor activities of Compounds of examples 135 and 146 were examined in murine xenotransplantation models of human cancer. For this purpose, mice were implanted subcutaneously with tumor cells. At a mean tumor size of 20-40 mm^2 animals were randomized into treatment and control groups (at least n=10 animals/group) and treatment started with vehicle only or respective Compound (formulation: 90% PEG400/10% Ethanol; application route: per os (“p.o.”), orally). The oral application volume was 10 ml/kg. In the case of twice daily treatments, the time interval between two applications per day was 6-7 h. The tumor size and the body weight were determined at least weekly. The tumor area was detected by means of an electronic caliper [length (mm)×width (mm)]. The experiment was ended when the study reached the pre-determined ethical endpoint based on German and European animal welfare regulations. In vivo anti-tumor efficacy is presented as T/C ratio at study end (Treatment/Control; mean tumor weight of treatment group/mean tumor weight of control group) in Table 8. A compound having a T/C below 0.5 is defined as active (i.e., effective). Statistical analysis was assessed using SigmaStat software. A one-way analysis of variance was performed and differences to the control were compared by a pair-wise comparison procedure (Dunn's method).

The subject of data set [5] is C32 cells. The data set can be described thus: Assay 2 cell proliferation measurement, C32. The format is cell-based. To be noted: Homo sapiens, Melanoma, read-out: Anti-proliferation IC50 [nM] C32. As for the experimental part:
as §1, §2

Data set [6] can be described thus: Assay 6 in vitro metabolic stability in cryopreserved human hepatocytes (CL, Fmax). To be noted: 1 μM test compound; for Clblood: hepatic in vivo blood clearance calculated (well-stirred) from half-life in cryopreserved human hepatocytes; for Fmax: maximal oral bioavailability calculated from half-life in cryopreserved human hepatocytes. In kind it is in vitro ADME. In outline:
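Test compound at 1 μM incubated with cryopreserved human hepatocytes (1.0×10^6 viable cells/ml, WME with 5% FCS) under shaking, with samples taken from 2 to 90 min, methanol-quenched and analysed by LC-MS/MS. Half-life gave intrinsic clearance, scaled with liver blood flow and hepatocellularity to CL and Fmax.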

In data set [7] the test system is Hs 578T cells. Description: Assay 1 cell proliferation measurement, Hs 578T. In kind it is cell-based. To be noted: Homo sapiens, Breast, read-out: Anti-proliferation IC50 [nM] Hs 578T.
The subject of data set [8] is A-2058 cells. The data set can be described thus: Assay 1 cell proliferation measurement, A-2058. In kind it is cell-based. To be noted: Homo sapiens, A2058; Melanoma; read-out: Anti-proliferation IC50 [nM] A-2058.

`C[C@@H]1OC(=O)NN=C1c1ccc(-n2ccc(C(F)(F)F)n2)c(C(F)(F)F)c1` [Example 265, (6S)-6-Methyl-5-{3-(trifluoromethyl)-4-[3-(trifluoromethyl)-1H-pyrazol-1-yl]phenyl}-3,6-dihydro-2H-1,3,4-oxadiazin-2-one]: the IC50 turned out to be 10 nM in data set [1], 101 nM in data set [2], 5 nM in data set [3] and 132 nM in data set [5]. Also, in data set [4], the “T/C (mean final tumor weight treatment / control)” value is 0.27*. The Clblood in data set [6] is 8.5 mL/min/kg. Moreover, in data set [6], the Fmax was 61%.

For `O=C1NN=C(c2ccc(-c3ccc(F)cc3)c(C(F)(F)F)c2)CO1` [Example 3, 5-[4′-Fluoro-2-(trifluoromethyl)biphenyl-4-yl]-3,6-dihydro-2H-1,3,4-oxadiazin-2-one], the IC50 in data set [7] is 29 nM. Besides, in data set [6], the Clblood was 6.5 mL/min/kg and the Fmax was 70%.

`C[C@@H]1OC(=O)NN=C1c1ccc(-c2ccc(F)cc2)c(C(F)(F)F)c1` [Example 135, (6S)-5-[4′-Fluoro-2-(trifluoromethyl)biphenyl-4-yl]-6-methyl-3,6-dihydro-2H-1,3,4-oxadiazin-2-one]: the IC50 was determined as 5 nM in data set [1]; 38 nM in data set [2]; 2 nM in data set [3]; 58 nM in data set [5]; 24 nM in data set [8]. Also, the “T/C (mean final tumor weight treatment / control)” value in data set [4] is 0.06*. Besides, the Clblood in data set [6] is 16.3 mL/min/kg. The Fmax in data set [6] is 26%.

Turning to `O=C1NN=C(c2ccc(-c3ccc(Cl)cc3)c(C(F)(F)F)c2)CO1` [Example 31, 5-[4′-Chloro-2-(trifluoromethyl)biphenyl-4-yl]-3,6-dihydro-2H-1,3,4-oxadiazin-2-one], the IC50 in data set [7] was greater than 100 nM; in data set [8] it was 51 nM. Further, the Clblood in data set [6] was 10.7 mL/min/kg. Moreover, the Fmax in data set [6] was 52%.

In the case of `O=C1NN=C(c2ccc(-c3cnn(C(F)F)c3)c(C(F)(F)F)c2)CO1` [Example 146, 5-{4-[1-(Difluoromethyl)-1H-pyrazol-4-yl]-3-(trifluoromethyl)phenyl}-3,6-dihydro-2H-1,3,4-oxadiazin-2-one], the IC50 in data set [1] is 3 nM; in data set [2], 37 nM; in data set [3] it was 2 nM; in data set [7] it was 28 nM; in data set [5] it was 52 nM; in data set [8], 16 nM. Further, the “T/C (mean final tumor weight treatment / control)” value in data set [4] is reported as 0.05*. Further, the Clblood in data set [6] was 8.83 mL/min/kg. In addition, the Fmax in data set [6] is 60%.
